Values joined by “and” are separate entries in the source; they are usually repeats but may differ in a detail not shown here. Equal values may be shown once. Each block holds one compound with its values, some of them ahead of it.
Assay: solvent given as SMILES
[1] = in c1cc(-n2c3ccccc3c3ccccc32)cc(-n2c3ccccc3c3ccccc32)c1
[2] = in O=P(c1ccccc1)(c1ccccc1)c1ccccc1Oc1ccccc1P(=O)(c1ccccc1)c1ccccc1

SMILES: Cc1cccc(C)c1Nc1ccc(/C=C/c2ccccc2)cc1
emission maximum (in CC#N): 424 nm
emission maximum (in CCCCCC): 375 nm

SMILES: F[B-]1(F)n2c(ccc2N2CCOCC2)C(c2ccccc2)=C2C=CC(N3CCOCC3)=[N+]21
emission maximum (in CC#N): 600 nm
emission maximum (in CCCCCC): 595 nm
emission maximum (in CCOC(C)=O): 597 nm
emission maximum (in CO): 594 nm
emission maximum (in ClCCl): 598 nm

SMILES: N#Cc1cc(-c2cc(C#N)c(-n3c4ccccc4c4ccccc43)cc2-n2c3ccccc3c3ccccc32)c(-n2c3ccccc3c3ccccc32)cc1-n1c2ccccc2c2ccccc21
emission maximum (in Cc1ccccc1): 453 nm

SMILES: COc1ccc(-c2ccc3c(c2)c2cc(-c4ccc(OC)cc4)ccc2n3-c2ccc(C(=O)c3ccc4sc5ccccc5c4c3)cn2)cc1
emission maximum (in Cc1ccccc1): 479.23 nm
emission maximum [1]: 484 nm

SMILES: CC1=CC(C)=[N+]2C1=C(c1c3ccccc3cc3ccccc13)c1c(C)cc(C)n1[B-]2(F)F
emission maximum (in CC#N): 512 nm
emission maximum (in CCCCCC): 515 nm
emission maximum (in CCO): 513 nm
emission maximum (in CN(C)C=O): 518 nm
emission maximum (in Cc1ccccc1): 521 nm
emission maximum (in ClCCl): 517 nm

SMILES: CCCCN(CCCC)c1ccc(C#Cc2cc(C#Cc3ccc(N(CCCC)CCCC)cc3)c(C#Cc3ccc(C(F)(F)F)cc3)cc2C#Cc2ccc(C(F)(F)F)cc2)cc1
emission maximum (in ClCCl): 541 nm
emission maximum (in c1ccccc1): 493 nm

SMILES: COCCOc1cc(C=O)c(OCCOC)cc1C=O
emission maximum (in CC(C)(C)O): 478 nm
emission maximum (in CC(C)CO): 479 nm
emission maximum (in CC(C)O): 479 nm
emission maximum (in CCCCO): 462 nm
emission maximum (in CCCO): 463 nm
emission maximum (in CCO): 464 nm
emission maximum (in CN(C)C=O): 465 nm
emission maximum (in CNC=O): 450 nm
emission maximum (in CO): 466 nm
emission maximum (in NC=O): 456 nm
emission maximum (in O): 495 nm

SMILES: CC(C)(C)c1ccc(-c2c(-c3cccc(-n4c5ccccc5c5ccccc54)c3)c(C#N)c(-c3cccc(-n4c5ccccc5c5ccccc54)c3)c(-c3ccc(C(C)(C)C)cc3)c2-c2ccc(C(C)(C)C)cc2)cc1
emission maximum (in C1CCOC1): 412 nm

SMILES: CC(C)(C)c1ccc2c(c1)c1cc(C(C)(C)C)ccc1n2-c1ccc(S(=O)(=O)c2ccc(-n3c4ccc(C(C)(C)C)cc4c4cc(C(C)(C)C)ccc43)cc2)cc1
emission maximum (in Cc1ccccc1): 404 nm
emission maximum [2]: 423 nm

SMILES: CC(C)(C)[Si](C)(C)c1cccc2ccccc12
emission maximum (in C1CCCCC1): 329 nm

SMILES: c1ccc(-c2ccc(-c3nc(-c4ccccc4)c(N(c4ccccc4)c4ccccc4)[se]3)cc2)cc1
emission maximum (in ClC(Cl)Cl): 468 nm

SMILES: CCCCOc1ccc(-c2cc(-c3ccc(OCCCC)cc3)c3ccc4c(-c5ccc(OCCCC)cc5)cc(-c5ccc(OCCCC)cc5)c5ccc2c3c54)cc1
emission maximum (in ClC(Cl)Cl): 433 nm

SMILES: CCCCCCCCOc1ccc(-c2c3c4n(c(-c5ccc(OCCCCCCCC)cc5)c3c3n2[B-](F)(F)[n+]2c(ccc5cc(C(C)(C)C)ccc52)C=3C#N)[B-](F)(F)[n+]2c(ccc3cc(C(C)(C)C)ccc32)C=4C#N)cc1
emission maximum (in ClC(Cl)Cl): 773 nm

SMILES: Clc1cc(Cl)c([C](c2c(Cl)cc(Cl)cc2Cl)c2c(Cl)cc(-n3c4ccccc4c4ccccc43)cc2Cl)c(Cl)c1
emission maximum (in C1CCCCC1): 628 nm
emission maximum (in ClC(Cl)Cl): 680 nm

SMILES: Cc1ccc2ccc3c(C)ccc4ccc1c2c43
emission maximum (in CCCCCC): 380 nm
emission maximum (in CO): 381 nm
emission maximum (in ClCCl): 382 nm

SMILES: O=c1oc2c(ccc3ccccc32)nc1-c1ccccc1
emission maximum (in CC#N): 490 nm
emission maximum (in CCCCCC): 459 nm
emission maximum (in CO): 511 nm
emission maximum (in c1ccccc1): 478 nm and 468 nm

SMILES: CCCCCCC1(CCCCCC)c2cc(-c3nc(-c4ccc5c(c4)C(CCCCCC)(CCCCCC)c4cc(N6c7ccccc7Oc7ccccc76)ccc4-5)nc(-c4ccc5c(c4)C(CCCCCC)(CCCCCC)c4cc(N6c7ccccc7Oc7ccccc76)ccc4-5)n3)ccc2-c2ccc(N3c4ccccc4Oc4ccccc43)cc21
emission maximum (in C1CCOC1): 616 nm
emission maximum (in CCCCCC): 485 nm
emission maximum (in Cc1ccccc1): 525 nm
emission maximum (in ClCCl): 621 nm

SMILES: C(=N\c1ccc(-c2cn3nc(-c4cccs4)sc3n2)cc1)/c1c2ccccc2cc2ccccc12
emission maximum (in ClC(Cl)Cl): 526 nm

SMILES: Cc1nnc(-c2ccc(-n3c4ccccc4c4ccccc43)cc2)o1
emission maximum (in CCO): 440 nm
emission maximum (in Cc1ccccc1): 372 nm

SMILES: N#Cc1ccc2nc3[nH]c(=O)[nH]c(=O)c3nc2c1
emission maximum (in ClCCCl): 420 nm

SMILES: CC(C)c1cc(N(C)C)c(C#N)c2c1-c1cccc3cccc-2c13
emission maximum (in O): 554 nm

SMILES: Cc1cc(=O)oc2ccc3ccc(-c4cn(Cc5ccccc5)nn4)cc3c12
emission maximum (in CCO): 420 nm

SMILES: c1ccc(-c2cc(-c3ccccc3)[o+]c(-c3ccccc3)c2)cc1
emission maximum (in CC#N): 465 nm
emission maximum (in ClCCCl): 463 nm

SMILES: F[B-]1(F)n2c(Oc3ccccc3)c(Cl)c(Br)c2C(Oc2ccccc2)=C2C(Br)=C(Cl)C(Oc3ccccc3)=[N+]21
emission maximum (in ClCCl): 544 nm

SMILES: CNc1ccc2c(c1)-c1ccccc1C2=O
emission maximum (in C1CCCCC1): 489 nm
emission maximum (in CC#N): 548 nm
emission maximum (in CCO): 583 nm
emission maximum (in c1ccccc1): 509 nm

SMILES: CCCC1(CCC)c2ccccc2-c2ccc(-c3ccc(C(C)(C)C)cc3)cc21
emission maximum (in C1CCCCC1): 314 nm

SMILES: CC(=O)OCCN1C(=O)c2cccc3c(Oc4ccc(C#N)cc4)ccc(c23)C1=O
emission maximum (in ClC(Cl)Cl): 410 nm

SMILES: Brc1cnc(-c2ccc(N(c3ccccc3)c3ccccc3)cc2)s1
emission maximum (in CO): 493 nm

SMILES: O=c1oc2ccc3ccccc3c2nc1-c1ccc(Cl)cc1
emission maximum (in c1ccccc1): 465 nm

SMILES: CC(=O)c1c(N[C@@H](Cc2ccccc2)C(=O)O)c2ccc(N(C)C)cc2oc1=O
emission maximum (in ClCCl): 450 nm

SMILES: Cc1ccc(N(c2ccc(C)cc2)c2ccc3c(c2)c2cc(N(c4ccc(C)cc4)c4ccc(C)cc4)ccc2n3-c2ccc(-c3nc4cccc5c4n3-c3ccccc3C5(C)C)cc2)cc1
emission maximum (in Cc1ccccc1): 496 nm
emission maximum [2]: 491 nm

SMILES: O=C(c1ccccc1)c1cc2ccc1CCc1ccc(cc1-c1ccc(N(c3ccccc3)c3ccccc3)cc1)CC2
emission maximum (in Cc1ccccc1): 492 nm
emission maximum [1]: 481.13 nm

SMILES: Fc1ccc(-c2nc3n(c2-c2ccncc2)CCS3)cc1
emission maximum (in C1CCCCC1): 397.5 nm
emission maximum (in C1CCOC1): 414 nm
emission maximum (in C1COCCO1): 412 nm
emission maximum (in CC#N): 420 nm
emission maximum (in CC(C)(C)O): 420 nm
emission maximum (in CC(C)=O): 418 nm
emission maximum (in CC(C)O): 436 nm
emission maximum (in CCO): 438 nm
emission maximum (in CCOC(C)=O): 414 nm
emission maximum (in CN(C)C=O): 426 nm
emission maximum (in CNC=O): 446 nm
emission maximum (in CO): 439 nm
emission maximum (in CS(C)=O): 436 nm
emission maximum (in Cc1ccc(C)cc1): 411.5 nm
emission maximum (in Cc1ccccc1): 412 nm
emission maximum (in ClC(Cl)Cl): 413.5 nm
emission maximum (in ClCCl): 415 nm
emission maximum (in O): 415 nm
emission maximum (in OCCO): 440.5 nm
emission maximum (in c1ccncc1): 434 nm

SMILES: COc1ccc2c3c(c4ccc(OC)cc4c2c1)C(C)(C)c1ccccc1-3
emission maximum (in C1CCCCC1): 391 nm

SMILES: COc1ccc(N2c3ccc4ccccc4c3-c3c4ccccc4cc[n+]3[B-]2(c2ccccc2)c2ccccc2)cc1
emission maximum (in Cc1ccccc1): 641 nm

Further lines, results first:

emission maximum (in CCO): 631 nm
emission maximum (in ClCCl): 605 nm
emission maximum (in O): 635 nm
SMILES: N#CC(C#N)=Cc1ccc(-c2cccc(-c3nc4ccccc4s3)c2O)o1

emission maximum (in C1CCOC1): 518 nm
SMILES: N#Cc1ccc(C2=CC3=c4cc(-c5ccc(C#N)cc5)c5nc(C(F)(F)C(F)(F)C(F)(F)F)nc6c(-c7ccc(C#N)cc7)cc(c4c65)C4=CC(c5ccc(C#N)cc5)=C5N=C(C(F)(F)C(F)(F)C(F)(F)F)N=C2C5C43)cc1 (configuration not stated)

emission maximum (in C1CCCCC1): 470 nm
SMILES: Cc1cc(C)c(B2c3cc(C(C)(C)C)ccc3-c3c(-c4ccccc4)ccc4cc(C(C)(C)C)cc2c34)c(C)c1

emission maximum (in ClCCl): 453 nm
SMILES: Cc1cccc(C)c1N1C(c2ccccc2)=Cc2cccc[n+]2[B-]1(F)F

emission maximum (in CO): 661 nm
emission maximum (in ClC(Cl)Cl): 675 nm
SMILES: CC[n+]1c(C=C2C(=O)C(C=C3N(C)c4ccccc4C3(C)C)=C2[O-])[se]c2ccccc21

emission maximum (in ClCCl): 492 nm
SMILES: F[B-]1(F)n2c(Oc3ccccc3)c(Cl)c3c2C(=C2C(Br)=C(Cl)C(Oc4ccccc4)=[N+]21)Oc1ccccc1-3

emission maximum (in ClCCl): 472 nm
SMILES: N#Cc1cc(/C=C/c2ccc(N(c3ccccc3)c3ccccc3)cc2)ccc1-c1ccc(/C=C/c2ccc(N(c3ccccc3)c3ccccc3)cc2)cc1C#N

emission maximum (in CC#N): 409 nm
emission maximum (in CCCCCCCCCCCCCCCC): 381 nm
emission maximum (in CO): 439 nm
emission maximum (in ClC(Cl)Cl): 404 nm
emission maximum (in c1ccccc1): 393 nm
SMILES: CC(C)(C)C1Nc2ccccc2C(=O)N1Cc1ccccc1 (configuration not stated)

emission maximum (in O): 397 nm
SMILES: Cc1ccc2c(c1)n(C)c(-c1ccc(-c3ccc(-c4ccc(-c5n(C)c6cc(C)ccc6[n+]5C)cc4)cc3)cc1)[n+]2C

emission maximum (in ClCCl): 697 nm
SMILES: COc1ccc(-c2c3cc4ccccc4cc3c(C#Cc3ccccc3)c3cc4ccccc4cc23)cc1

emission maximum (in C1CCOC1): 351.7 nm
emission maximum (in CC#N): 352.7 nm
emission maximum (in CC(C)O): 351.3 nm
emission maximum (in CCCCO): 351.4 nm
emission maximum (in CCO): 352.3 nm
emission maximum (in CO): 352.2 nm
emission maximum (in ClCCl): 353.1 nm
emission maximum (in O): 355.5 nm
SMILES: COc1ccc2cc([C@H](C)C(=O)O)ccc2c1

emission maximum (in ClCCl): 741 nm
SMILES: CC(C)(C)c1cc(-c2c3cc(c(-c4cc(C(C)(C)C)cc(C(C)(C)C)c4)c4ccc([nH]4)c(-c4ccc(Br)cc4)c4nc(c(-c5ccc(Br)cc5)c5ccc2[nH]5)C=C4)N=C3)cc(C(C)(C)C)c1

emission maximum (in CCO): 447 nm
SMILES: COc1ccc(C(=O)OCc2ccc3c4cccc5cccc(c6cccc2c63)c54)cc1

emission maximum (in ClC(Cl)Cl): 680 nm
SMILES: COc1ccccc1-c1cc2c(o1)=CC1=Cc3cc4oc(-c5ccccc5OC)cc4n3[B-](F)(F)[N+]=21

emission maximum (in ClC(Cl)Cl): 413 nm
SMILES: N#Cc1ccc(Oc2ccc3c4c(cccc24)C(=O)N(CCO)C3=O)cc1

emission maximum (in ClCCl): 440 nm
SMILES: C(=C\c1cccc2ccccc12)/c1ncc(-c2ccccc2)o1

emission maximum (in CC#N): 470 nm
emission maximum (in CO): 467 nm
emission maximum (in O): 482 nm
SMILES: CN1CCN(CCCN2c3ccccc3Sc3ccc(C(F)(F)F)cc32)CC1

emission maximum (in ClCCl): 446 nm
SMILES: CC(=O)c1c(N[C@H](C(=O)O)C(C)C)c2ccc(N(C)C)cc2oc1=O

Reference: the Deep4Chem optical property database
